Data reported in patent US20240165243A1, “EGFR DEGRADERS AND METHODS OF USE” (BeiGene Switzerland GmbH, priority 2021, published 2024).

What was measured:
[1] = target: EGFR (L858R/T790M/C797S) (Homo sapiens, UniProt P00533, C797S/L858R/T790M); assay: Cell degradation HTRF assay, H1975-clone #25 cells; type: cell-based; conditions: H1975-clone #25 (L858R/T790M/C797S) cells, 16 h treatment; for DC50: HTRF, read-out: H1975-clone#25 LTC DC50; for Dmax: maximum percentage of degradation, read-out: H1975-clone#25 LTC Dmax (%)
Chain of EGFR (L858R/T790M/C797S) (P00533 25-1210 T790M/C797S/L858R): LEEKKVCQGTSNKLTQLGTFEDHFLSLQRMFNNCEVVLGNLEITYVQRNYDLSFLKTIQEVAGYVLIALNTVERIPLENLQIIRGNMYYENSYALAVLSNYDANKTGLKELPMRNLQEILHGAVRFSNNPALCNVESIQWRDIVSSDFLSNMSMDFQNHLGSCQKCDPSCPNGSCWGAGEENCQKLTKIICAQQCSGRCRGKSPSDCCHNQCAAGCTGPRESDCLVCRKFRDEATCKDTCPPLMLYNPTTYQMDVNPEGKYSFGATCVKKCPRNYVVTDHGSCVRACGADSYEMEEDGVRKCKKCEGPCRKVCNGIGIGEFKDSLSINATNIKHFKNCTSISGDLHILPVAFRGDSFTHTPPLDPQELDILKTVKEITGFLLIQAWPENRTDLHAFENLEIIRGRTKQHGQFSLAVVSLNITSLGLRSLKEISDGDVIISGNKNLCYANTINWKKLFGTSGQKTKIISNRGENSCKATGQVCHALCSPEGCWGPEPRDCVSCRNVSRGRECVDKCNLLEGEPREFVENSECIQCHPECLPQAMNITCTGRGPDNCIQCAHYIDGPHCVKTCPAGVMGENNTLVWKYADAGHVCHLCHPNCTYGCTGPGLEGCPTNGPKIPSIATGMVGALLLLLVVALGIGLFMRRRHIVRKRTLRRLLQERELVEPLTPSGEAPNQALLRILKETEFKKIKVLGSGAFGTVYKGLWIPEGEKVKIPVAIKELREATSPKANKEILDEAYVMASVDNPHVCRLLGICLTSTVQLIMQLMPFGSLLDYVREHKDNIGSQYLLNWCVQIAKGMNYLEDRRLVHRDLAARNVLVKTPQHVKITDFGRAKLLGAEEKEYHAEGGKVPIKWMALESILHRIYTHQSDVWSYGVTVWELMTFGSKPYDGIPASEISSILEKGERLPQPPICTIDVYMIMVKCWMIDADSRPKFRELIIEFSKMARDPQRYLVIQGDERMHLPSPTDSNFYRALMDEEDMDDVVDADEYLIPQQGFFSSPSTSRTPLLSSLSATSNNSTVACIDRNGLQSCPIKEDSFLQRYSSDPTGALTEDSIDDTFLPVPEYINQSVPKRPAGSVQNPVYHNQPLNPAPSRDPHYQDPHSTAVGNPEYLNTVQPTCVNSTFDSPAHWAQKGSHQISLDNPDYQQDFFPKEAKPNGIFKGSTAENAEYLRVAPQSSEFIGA
Experimental: Cell Degradation of Example 124-189
H1975-#28 and H1975-#25 cells are treated with compounds diluted in 0.2% DMSO cell culture medium on day 2, incubate for 16 h, 37° C., 5% CO2. the final concentration of compounds in all assay is start with 10 uM, 5-fold dilution, total 8 doses were included.
After 16 h treatment, add HTRF lysis buffer to each well; seal the plate and incubate 1 hour at room temperature on a plate shaker; Once the cells are lysed, 16 μL of cell lysate are transferred to a PE 384-well HTRF detection plate; 4 μL of pre-mixed HTRF antibodies are added to each well; Cover the plate with a plate sealer, spin 1000 rpm for 1 min, Incubate overnight at room temperature; Read on BMG PheraStar with HTRF protocol (337 nm-665 nm-620 nm).
The inhibition (degradation) percentage of the compound was calculated by the following equation:
Inhibition percentage of Compound=100−100×(Signal−low control)/(High control−low control), wherein signal=each test compound group.
High control=Cell group with added DMSO and without compound, indicating microplate readings without EGFR degradation;
Dmax is the maximum percentage of inhibition (degradation).
The IC50 (DC50) value of a compound can be obtained by fitting the following equation
Y=Bottom+(TOP−Bottom)/(1+((IC50/X)^hillslope))
Wherein, X and Y are known values, and IC50, Hillslope, Top and Bottom are the parameters obtained by fitting with software. Y is the inhibition percentage (calculated from the equation), X is the concentration of the compound; IC50 is the concentration of the compound when the 50% inhibition is reached. The smaller the IC50 value is, the stronger the inhibitory ability of the compound is. Vice versa, the higher the IC50 value is, the weaker the ability the inhibitory ability of the compound is; Hillslope represents the slope of the fitted curve, generally around 1*; Bottom represents the minimum value of the curve obtained by data fitting, which is generally 0%±20%; Top represents the maximum value of the curve obtained by data fitting, which is generally 100%±20%. The experimental data were fitted by calculating and analyzing with Dotmatics data analysis software. When Dmax<50%, DC50 will be automatically assigned as larger than […].

[2] = test system: EGFR (Del19/T790M/C797S); assay: Cell degradation HTRF assay, H1975-clone #28 cells; type: cell-based; conditions: H1975-clone #28 (Del19/T790M/C797S) cells, 16 h treatment; for DC50: HTRF, read-out: H1975-clone#28 DTC DC50; for H1975-clone#28 DTC Dmax (%): maximum percentage of degradation
In short: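 H1975 clones #25 and #28 were treated 16 h at 37° C, 5% CO2 with 8 doses (top 10 uM, 5-fold dilution) in 0.2% DMSO medium. EGFR in lysates read by HTRF (665/620 nm); degradation % relative to DMSO high control; DC50 from 4-parameter fit, Dmax = maximal degradation.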

SMILES	DC50 [1] [nM]	Dmax [1] [%]	DC50 [2] [nM]	H1975-clone#28 DTC Dmax (%) [2] [%]
CCOc1cc(N2CCC(N3CCN(CCc4cccc5c4n(C)c(=O)n5C4CCC(=O)NC4=O)CC3)CC2)c(CC)cc1Nc1ncc(Br)c(Nc2cnc3cc(F)ccc3c2P(C)(C)=O)n1 (centres unmarked) [Example 147, 3-(4-(2-(4-(1-(4-((5-bromo-4-((4-(dimethylphosphoryl)-7-fluoroquinolin-3-yl)amino)pyrimidin-2-yl)amino)-5-ethoxy-2-ethylphenyl)piperidin-4-yl)piperazin-1-yl)ethyl)-3-methyl-2-oxo-2,3-dihydro-1H-benzol[d]imidazol-1-yl) piperidine-2,6-dione]	15.3	77	0.4	84
CCc1cc(Nc2ncc(Br)c(Nc3cnc4ccc(C(F)(F)F)cc4c3P(C)(C)=O)n2)c(OC)cc1N1CCC(N2CCN(CCc3cccc4c3n(C)c(=O)n4C3CCC(=O)NC3=O)CC2)CC1 (centres unmarked) [Example 166, 3-(4-(2-(4-(1-(4-((5-bromo-4-((4-(dimethylphosphoryl)-6-(trifluoromethyl)quinolin-3-yl)amino)pyrimidin-2-yl)amino)-2-ethyl-5-methoxyphenyl)piperidin-4-yl)piperazin-1-yl)ethyl)-3-methyl-2-oxo-2,3-dihydro-1H-benzo[d]imidazol-1-yl)piperidine-2,6-dione]	4.2	81	2.8	80
